Columns and labels:
[1] = system: corn; experiment: Test A pre-/postemergence herbicide test; type: in vivo, Zea mays; conditions: for Corn plant response rating: Preemergence, visual rating on 0 to 100 scale (0 no effect, 100 complete control)
How it was run: (§1)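 Seeds in loam–sand blend received preemergence directed soil spray; separately, plants 2–10 cm at one- to two-leaf stage received postemergence spray, both with test chemicals in non-phytotoxic solvent with surfactant. After ~10 days in greenhouse, injury rated visually against untreated controls, 0 (no effect) to 100 (complete control).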

[2] = system: nutsedge, yellow; experiment: Test C pre-/postemergence herbicide test; type: in vivo, Cyperus esculentus; conditions: Preemergence
How it was run: (§2)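 Pre-emergence: seeds sown in loam/sand blend and treated with compound in surfactant-containing solvent. Post-emergence: plants at 2–18 cm (1- to 4-leaf stage) in peat-based medium sprayed with the same formulation. Visual rating versus controls after 13–15 days in greenhouse, scale 0 (no effect) to 100 (complete control).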

[3] = system: lambsquarters; experiment: Test C pre-/postemergence herbicide test; type: in vivo, Chenopodium album; conditions: Preemergence
How it was run: as §2

[4] = system: corn; experiment: Test C pre-/postemergence herbicide test; type: in vivo, Zea mays; conditions: Preemergence; for Corn plant response rating: 31 g ai/ha
How it was run: as §2

[5] = system: soybean; experiment: Test C pre-/postemergence herbicide test; type: in vivo, Glycine max; conditions: Preemergence
How it was run: as §2

[6] = system: ducksalad; experiment: Test B flooded paddy test; type: in vivo, Heteranthera limosa; conditions: 250 g ai/ha, Flood; scale of 0 to 100 where 0 is no effect and 100 is complete control
How it was run: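 In-water application to pots flooded 3 cm deep, plants at 2-leaf stage. Held in greenhouse 13–15 days at constant flood depth. Scored 0–100 by eye against controls.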

[7] = system: giant foxtail; experiment: Test A pre-/postemergence herbicide test; type: in vivo, Setaria faberii; conditions: for Foxtail, Giant plant response rating: Preemergence, visual rating on 0 to 100 scale (0 no effect, 100 complete control)
How it was run: as §1

[8] = system: ryegrass, Italian; experiment: Test C pre-/postemergence herbicide test; type: in vivo, Lolium multiflorum; conditions: Preemergence
How it was run: as §2

[9] = system: barnyardgrass; experiment: Test A pre-/postemergence herbicide test; type: in vivo, Echinochloa crus-galli; conditions: for Barnyardgrass plant response rating: Preemergence, visual rating on 0 to 100 scale (0 no effect, 100 complete control)
How it was run: as §1

[10] = Postemergence, 125 g ai/ha, 0 to 100 scale, 0 no effect, 100 complete control
[11] = Postemergence, 500 g ai/ha, 0 to 100 scale (0 no effect, 100 complete control)
[12] = preemergence, 500 g ai/ha, 0 to 100 scale
[13] = 125 g ai/ha, scale 0 to 100 (0 no effect, 100 complete control)
[14] = scale 0 to 100 (0 no effect, 100 complete control)
[15] = 250 g ai/ha, scale 0 to 100 (0 no effect, 100 complete control)
[16] = preemergence, 500 g ai/ha, 0 to 100 scale (0 no effect, 100 complete control)

| Structure (SMILES) | Plant response rating, Corn [1, 10] | Plant response rating, Corn [1, 11] | Corn plant response rating ([1]; 125 g ai/ha) | Plant response rating, Corn [1, 12] | Plant response rating, Nutsedge, Yellow ([2]; 62 g ai/ha, scale 0 to 100) | Plant response rating, Lambsquarters ([3]; 62 g ai/ha, scale 0 to 100) | Plant response rating, Lambsquarters [3, 13] | Corn plant response rating [4, 14] | Plant response rating, Corn ([4]; 62 g ai/ha, scale 0 to 100) | Plant response rating, Corn [4, 13] | Plant response rating, Corn [4, 15] | Plant response rating, Soybean ([5]; 62 g ai/ha, scale 0 to 100) | Plant response rating, Soybean [5, 13] | Plant response rating, Ducksalad [6] | Plant response rating, Foxtail, Giant [7, 10] | Plant response rating, Foxtail, Giant [7, 11] | Foxtail, Giant plant response rating ([7]; 125 g ai/ha) | Plant response rating, Foxtail, Giant [7, 12] | Plant response rating, Ryegrass, Italian ([8]; 62 g ai/ha, scale 0 to 100) | Plant response rating, Ryegrass, Italian [8, 13] | further results |
| --- | --- | --- | --- | --- | --- | --- | --- | --- | --- | --- | --- | --- | --- | --- | --- | --- | --- | --- | --- | --- | --- |
| O=C1NCC(c2ccc(Cl)c(F)c2)C1C(=O)Nc1ccccc1F (centres unmarked) [Compound 53] | 0 | 0 | 0 | 0 | 20 | 0 | 40 | 10 | 20 | 20 | 20 | 15 | 15 | 100 | 30 | 80 | 90 | 90 | 0 | 0 | Plant response rating, Barnyardgrass [9, 10]: 30; Plant response rating, Barnyardgrass [9, 11]: 80; Barnyardgrass plant response rating ([9]; 125 g ai/ha): 80; Plant response rating, Barnyardgrass [9, 16]: 90 |
| O=C1NCC(c2ccc(F)c(Cl)c2)C1C(=O)Nc1cccc(F)c1F (centres unmarked) [Compound 59] | 0 | 30 | 0 | 0 | 0 | 0 | 0 | 0 | 10 | 10 | 45 | 15 | 20 | 75 | 80 | 80 | 80 | 90 | 0 | 0 | Plant response rating, Nutsedge, Yellow [2, 13]: 0; Plant response rating, Barnyardgrass [9, 10]: 70; Plant response rating, Barnyardgrass [9, 11]: 90; Barnyardgrass plant response rating ([9]; 125 g ai/ha): 80; Plant response rating, Barnyardgrass [9, 16]: 90 |
| O=C1NCC(c2ccc3c(c2)OC(F)(F)O3)C1C(=O)Nc1cccc(F)c1F (centres unmarked) [Compound 62] | 40 | 70 | 0 | 0 | 10 | 65 | 70 | 20 | 20 | 30 | 55 | 30 | 35 | 75 | 80 | 80 | 80 | 90 | 0 | 30 | Plant response rating, Nutsedge, Yellow [2, 13]: 20; Plant response rating, Barnyardgrass [9, 10]: 70; Plant response rating, Barnyardgrass [9, 11]: 80; Barnyardgrass plant response rating ([9]; 125 g ai/ha): 80; Plant response rating, Barnyardgrass [9, 16]: 80 |

Source: US10294202B2, “Pyrrolidinones as herbicides” (FMC Corporation, priority 2013, dated 2019)
